The test system of data set [1] is THP-1 cells. The experiment in a line: Clonogenic assay, THP-1. It counts as cell-based, human. Particulars: 24 hours exposure, then methylcellulose; p<0.05 at 1, 10 and 100 μM. The method, then: MOLM-14 and THP-1 were treated with either DMSO control or mono-aziridine dimeric naphthoquinone or bis-aziridinyl dimeric naphthoquinone compounds at concentrations of 0.1, 1, 10 and 100 μM (micromolar) for 24 hours. The cells then were washed with growth medium and resuspended in growth medium and methylcellulose with or without DMSO or the treatment compounds. After 7 or 13 days (MOLM-14 or THP-1, respectively), treatment was terminated by addition of 1.0 mg/mL, iodonitrotetrazolium chloride (INT; Sigma Aldrich®) and read 24 hours later with an automated colony counter (Symbiosis®). Data were analyzed and graphed using GraphPad Prism® software.
Next, the effect of bis-aziridinyl-dimeric naphthoquinone Compound 101 on AML cell survival and viability. […] For colony formation assays, cell lines were treated with the indicated doses of aziridinyl dimeric naphthoquinone Compound 101 for 24 hours, and subsequently washed and plated in methylcellulose to observe clonogenic potential after 7-10 days. See above for additional comments on the methods.
Clonogenic inhibition was […] when bis-aziridinyl dimeric naphthoquinone was removed from cells after 24 hours of treatment. The bis-aziridinyl dimeric naphthoquinone was able to reduce clonogenicity with just a 24-hour exposure prior to plating.

A short description of data set [2]: Safety and tolerability in NSG mice. It is filed as in vivo. Particulars: female NSG mice; 5, 10 or 15 mg/kg intraperitoneal daily for 5 days, one week observation. The method, then: Considering the significant antineoplastic, activity of Compound 101, the safety and tolerability of this agent was tested in vivo on female NSG nice. Groups of three female NOD.Cg-Prkdc^scid Il2rg^tm1Wjl/SzJ (NSG) mice were tested with 5, 10 or 15 mg/kg of Compound 101 delivered by intraperitoneal injection daily for 5 consecutive days, and the mice monitored for one additional week. […] An asterisk (*) denotes days of dosing.

The subject of data set [3] is MOLM-14 cells. The data set is described as follows: Gamma-H2Ax immunofluorescence assay, MOLM-14. It is filed as cell-based, human. The following applies: 24 hours; 200 nM, 1.0 and 2.0 μM. The method, then: MOLM-14 cells were seeded in the afternoon and the following morning treated with DMSO, or aziridinyl-dimeric naphthoquinone Compound 101 at 1×, 5×; or 10× IC50 concentrations. Cells were harvested at 24 and 48 hours. Briefly, cells were washed twice with PBS, counted, and resuspended into PBS/2% FBS. Approximately 150,000 cells were pelleted on Superfrost® microslides (Thermo Fisher Scientific®) using a cytospin machine (Thermo Fisher Scientific®) for 10 minutes at 800 RPM. Slides were air-dried for 5 minutes, then fixed in 4% paraformaldehyde for 15 minutes, washed with PBS 3 times, each time for 5 minutes and permeabilized with permeabilization buffer (50 mM NaCl, 3 mM MgCl2, 10 mM HEPES, 200 mM sucrose, and 0.5% Triton-X-100) for 10 minutes. After overnight blocking in PBS/10% FBS, slides were washed 3 times, each time for 5 minutes with wash buffer (PBS, 1% BSA, and 0.1% Triton-X-100), stained with 1:100 anti-phosphohistone H2Ax antibody (Millipore®), washed with wash buffer again 3 times, each time for 5 minutes, and stained with 1:200 goat anti-mouse IgG, Dylight 594® (Thermo Scientific®), washed 3 times, each time for 5 minutes with wash buffer, and mounted with Vectashield® mounting medium with 4′,6-diamidino-2-phenylindole (DAPI, Vector Labs®). Slides sat overnight and were sealed the following day with clear nail polish. […]

Entries after “also recorded” stand apart in the source; their conditions may differ.

We go through 1 compound from patent US11459313B2, “Aziridinyl and amino dimeric naphthoquinone compounds and use for acute myeloid leukemia” (University of Maryland, Baltimore, priority 2016, dated 2022).

With `O=C1C(C2=C(N3CC3)C(=O)c3ccccc3C2=O)=C(N2CC2)C(=O)c2ccccc21` [Compound 101, 3,3′-di(aziridin-1-yl)-[2,2′-binaphthalene]-1,1 4,4′-tetrone], the “clonogenic activity (colony formation), THP-1” value in data set [1] is on record as “marked reduction in clonogenic activity; also recorded: inhibits clonogenicity”. For the same compound, in data set [2], the “mean body weight loss” value is recorded as no more than 10% and the tolerability result is reported as “tolerated the compound well with no weight loss observed”. In addition, the “γ-H2Ax phosphorylation (double-stranded DNA breaks), MOLM-14” value in data set [3] was “substantial γ-H2Ax phosphorylation”.
